Source: patent publication US20050239656A1, “Pyridine compounds or salts thereof and herbicides containing the same” (priority 2002, published 2005)

Experiments:
redroot pigweed [1] = test: Test Example 2: soil surface treatment, upland pot test; type: in vivo, Amaranthus retroflexus L.; conditions: active ingredient 1000 g/ha, observed 20th to 28th day
Outline: (§1)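 Pre-emergence: the soil surface was sprayed 1 day after sowing with wettable powder or emulsifiable concentrate diluted in water at 1,500 L/ha, at a predetermined active ingredient amount. Growth control was scored visually 20–28 days after treatment, 0 (untreated) to 100 (complete kill).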

velvetleaf [2] = test: as above; type: in vivo, Abutilon theophrasti MEDIC.; conditions: active ingredient 1000 g/ha, observed 20th to 28th day
Outline: as §1

velvetleaf [3] = test: Test Example 1: foliage treatment, upland pot test; type: in vivo, Abutilon theophrasti MEDIC.; conditions: active ingredient 1000 g/ha, observed 18th to 23rd day, 0 = non-treated, 100 = complete kill
crabgrass [4] = test: Test Example 2: soil surface treatment, upland pot test; type: in vivo, Digitaria sanguinalis L.; conditions: active ingredient 1000 g/ha, observed 20th to 28th day
Outline: as §1

redroot pigweed [5] = test: Test Example 1: foliage treatment, upland pot test; type: in vivo, Amaranthus retroflexus L.; conditions: active ingredient 1000 g/ha, observed 18th to 23rd day, 0 = non-treated, 100 = complete kill
rice [6] = test: Test Example 2: soil surface treatment, upland pot test; type: in vivo, Oryza sativa L.; conditions: active ingredient 1000 g/ha, observed 20th to 28th day
Outline: as §1

corn [7] = test: as above; type: in vivo, Zea mays L.; conditions: active ingredient 1000 g/ha, observed 20th to 28th day
Outline: as §1

japanese bulrush = test: Test Example 3: paddy pot test, application under submerged conditions; type: in vivo, Scirpus juncoides; conditions: submerged application at 0.5 leaf stage, visually observed 14 days after application, 0 = non-treated, 100 = complete kill
Outline: (§2)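 Barnyardgrass and japanese bulrush sown in flooded paddy soil in greenhouse pots, japanese ribbon wapato tubers planted 1–2 days later; water depth kept at 3–4 cm. Diluted wettable powder or emulsifiable concentrate applied into water at 0.5-leaf or primary-leaf stage at set active-ingredient doses. Growth control scored visually at 14 days, 0 (untreated) to 100% (complete kill).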

soybean [8] = test: Test Example 1: foliage treatment, upland pot test; type: in vivo, Glycine max Merr.; conditions: crop, active ingredient 1000 g/ha, observed 18th to 23rd day, 0 = non-treated, 100 = complete kill
Outline: (§3)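 Crops and weeds were sown in upland soil pots and sprayed post-emergence at set leaf stages (soybean 0.1–0.4, wheat 1.3–2.4, rice 1.2–2.6, barnyardgrass 1.3–2.8). Formulated compound was applied in 500 L/ha water with 0.1% spreader. Growth control (0–100%) was rated visually 18–23 days later.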

wheat [9] = test: Test Example 1: foliage treatment, upland pot test; type: in vivo, Triticum spp.; conditions: crop, active ingredient 1000 g/ha, observed 18th to 23rd day, 0 = non-treated, 100 = complete kill
Outline: as §3

prickly sida [10] = test: Test Example 1: foliage treatment, upland pot test; type: in vivo, Sida spinosa L.; conditions: active ingredient 1000 g/ha, observed 18th to 23rd day, 0 = non-treated, 100 = complete kill
wheat [11] = test: Test Example 2: soil surface treatment, upland pot test; type: in vivo, Triticum spp.; conditions: active ingredient 1000 g/ha, observed 20th to 28th day
Outline: as §1

japanese ribbon wapato = test: Test Example 3: paddy pot test, application under submerged conditions; type: in vivo, Sagittaria pygniaea; conditions: submerged application at primary leaf stage, visually observed 14 days after application, 0 = non-treated, 100 = complete kill
Outline: as §2

crabgrass [12] = test: Test Example 1: foliage treatment, upland pot test; type: in vivo, Digitaria sanguinalis L.; conditions: active ingredient 1000 g/ha, observed 18th to 23rd day, 0 = non-treated, 100 = complete kill
barnyardgrass [13] = test: Test Example 1: foliage treatment, upland pot test; type: in vivo, Echinochloa crus-galli L.; conditions: active ingredient 1000 g/ha, observed 18th to 23rd day, 0 = non-treated, 100 = complete kill
Outline: as §3

rice [14] = test: Test Example 1: foliage treatment, upland pot test; type: in vivo, Oryza sativa L.; conditions: crop, active ingredient 1000 g/ha, observed 18th to 23rd day, 0 = non-treated, 100 = complete kill
Outline: as §3

green foxtail [15] = test: Test Example 2: soil surface treatment, upland pot test; type: in vivo, Setaria viridis L.; conditions: active ingredient 1000 g/ha, observed 20th to 28th day
Outline: as §1

prickly sida [16] = test: as above; type: in vivo, Sida spinosa L.; conditions: active ingredient 1000 g/ha, observed 20th to 28th day
Outline: as §1

barnyardgrass [17] = test: as above; type: in vivo, Echinochloa crus-galli L.; conditions: active ingredient 1000 g/ha, observed 20th to 28th day, 0 = non-treated, 100 = complete kill
Outline: as §1

soybean [18] = test: as above; type: in vivo, Glycine max Merr.; conditions: active ingredient 1000 g/ha, observed 20th to 28th day
Outline: as §1

rice (var. Nihonbare) = test: Test Example 3: paddy pot test, transplanted rice; type: in vivo, Oryza sativa L.; conditions: applied 4th day after transplantation, visually observed 21st day after application, 0 = non-treated, 100 = complete kill
Outline: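 Rice (var. Nihonbare) at 2 leaf stage transplanted 3 cm deep into puddled paddy soil under 3–4 cm flooding; on day 4 after transplanting, diluted wettable powder or emulsifiable concentrate applied by pipette under submerged conditions at a set active-ingredient dose. Growth scored visually 21 days after application, 0 (untreated) to 100 (complete kill) %.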

corn [19] = test: Test Example 1: foliage treatment, upland pot test; type: in vivo, Zea mays L.; conditions: crop, active ingredient 1000 g/ha, observed 18th to 23rd day, 0 = non-treated, 100 = complete kill
Outline: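 Corn seeds were sown in upland field soil held in a 1/170,000 ha pot and grown to the 2.1 to 3.2 leaf stage. A wettable powder or emulsifiable concentrate of the test compound was diluted with water at 500 L/ha, given 0.1% (v/v) agricultural spreader, and sprayed onto the foliage with a small sprayer. Growth controlling degree (%) was scored visually 18th to 23rd days later, from 0 (non-treated) to 100 (complete kill).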

green foxtail [20] = test: Test Example 1: foliage treatment, upland pot test; type: in vivo, Setaria viridis L.; conditions: active ingredient 1000 g/ha, observed 18th to 23rd day, 0 = non-treated, 100 = complete kill
barnyardgrass [21] = test: Test Example 3: paddy pot test, application under submerged conditions; type: in vivo, Echinochloa crus-galli L.; conditions: submerged application at 0.5 leaf stage, visually observed 14 days after application, 0 = non-treated, 100 = complete kill
Outline: as §2

tall morningglory = test: Test Example 1: foliage treatment, upland pot test; type: in vivo, Ipomoea purpurea L.; conditions: active ingredient 1000 g/ha, observed 18th to 23rd day, 0 = non-treated, 100 = complete kill

SMILES	Growth controlling degree (%) Redroot pigweed (redroot pigweed [1]) [%]	Growth controlling degree (%) Velvetleaf (velvetleaf [2]) [%]	Growth controlling degree (%) Velvetleaf (velvetleaf [3]) [%]	Growth controlling degree (%) Crabgrass (crabgrass [4]) [%]	Growth controlling degree (%) Redroot pigweed (redroot pigweed [5]) [%]	Growth controlling degree (%) Rice (rice [6]) [%]	Growth controlling degree (%) Corn (corn [7]) [%]	Growth controlling degree (%) Japanese bulrush (japanese bulrush; active ingredient 500 g/ha) [%]	Growth controlling degree (%) Soybean (soybean [8]) [%]	Growth controlling degree (%) wheat (wheat [9]) [%]	Growth controlling degree (%) Prickly sida (prickly sida [10]) [%]	Growth controlling degree (%) wheat (wheat [11]) [%]	Growth controlling degree (%) Japanese ribbon wapato (japanese ribbon wapato; active ingredient 500 g/ha) [%]	Growth controlling degree (%) Crabgrass (crabgrass [12]) [%]	Growth controlling degree (%) Barnyardgrass (barnyardgrass [13]) [%]	Growth controlling degree (%) Rice (rice [14]) [%]	Growth controlling degree (%) Green foxtail (green foxtail [15]) [%]	Growth controlling degree (%) Prickly sida (prickly sida [16]) [%]	Growth controlling degree (%) Barnyardgrass (barnyardgrass [17]) [%]	Growth controlling degree (%) Soyabean (soybean [18]) [%]	other results
CC(C)C(c1cnccc1C(F)(F)F)N(C)C(=O)Cc1ccccc1 (stereo not shown) [I-1, N-methyl-N-[2-methyl-1-(4-trifluoromethylpyridin-3-yl)propyl]phenylacetamide]	80	80	90	100	70	80	70	98	80	60	80	50	95	80	80	60	100	70	90	50	melting point: 71.2 °C; Growth controlling degree (%) Rice (rice (var. Nihonbare); active ingredient 500 g/ha): 60%; Growth controlling degree (%) Corn (corn [19]): 70%; Growth controlling degree (%) Green foxtail (green foxtail [20]): 70%
CCN(C(=O)Cc1c(F)cccc1F)C(c1cnccc1C(F)(F)F)C(C)C (stereo not shown) [I-30, N-ethyl-N-[2-methyl-1-(4-trifluoromethylpyridin-3-yl)propyl]2,6-difluorophenylacetamide]																					Growth controlling degree (%) Japanese bulrush (japanese bulrush; active ingredient 250 g/ha): 90%; melting point: 121.9 °C; Growth controlling degree (%) Barnyardgrass (barnyardgrass [21]; active ingredient 250 g/ha): 100%; Growth controlling degree (%) Japanese ribbon wapato (japanese ribbon wapato; active ingredient 250 g/ha): 80%; Growth controlling degree (%) Rice (rice (var. Nihonbare); active ingredient 250 g/ha): 0%
CCC(=O)N(CC)C(c1cnccc1C(F)(F)F)c1cccc2ccccc12 (stereo not shown) [I-44]	0	0	95	90	70	40	10	95	50	20	80	40	100	80	60	10	100	0	80	0	Growth controlling degree (%) Barnyardgrass (barnyardgrass [21]; active ingredient 500 g/ha): 90%; Growth controlling degree (%) Tall morningglory (tall morningglory): 90%; Growth controlling degree (%) Rice (rice (var. Nihonbare); active ingredient 500 g/ha): 30%; Growth controlling degree (%) Corn (corn [19]): 10%; Growth controlling degree (%) Green foxtail (green foxtail [20]): 70%
COC(=O)N(C)C(c1cnccc1C(F)(F)F)c1cccc2ccccc12 (stereo not shown) [I-46]	10	50	95	90	90	10	10	100	95	30	80	30	90	95	80	30	95	60	100	0	Growth controlling degree (%) Barnyardgrass (barnyardgrass [21]; active ingredient 500 g/ha): 100%; Growth controlling degree (%) Tall morningglory (tall morningglory): 95%; Growth controlling degree (%) Rice (rice (var. Nihonbare); active ingredient 500 g/ha): 10%; Growth controlling degree (%) Corn (corn [19]): 40%; Growth controlling degree (%) Green foxtail (green foxtail [20]): 50%
